Test results published in US9951064B2, “Azaindazole compounds as inhibitors of T790M containing EGFR mutants” (Genentech, Inc., priority 2013, dated 2018).
Read-outs that look alike come from different tables or passages of the source.

Key:
[1] = target: T1, EGFR T790M L858R (Homo sapiens, UniProt P00533, L858R/T790M); assay: EGFR T790M L858R biochemical assay (Caliper mobility shift); conditions: 5 μM ATP; apparent Ki (Morrison fit) converted by Cheng-Prusoff, Km of ATP 1.3 μM
T1 construct: purchased Life Technologies PV4879
T1 sequence (P00533 25-1210 T790M/L858R): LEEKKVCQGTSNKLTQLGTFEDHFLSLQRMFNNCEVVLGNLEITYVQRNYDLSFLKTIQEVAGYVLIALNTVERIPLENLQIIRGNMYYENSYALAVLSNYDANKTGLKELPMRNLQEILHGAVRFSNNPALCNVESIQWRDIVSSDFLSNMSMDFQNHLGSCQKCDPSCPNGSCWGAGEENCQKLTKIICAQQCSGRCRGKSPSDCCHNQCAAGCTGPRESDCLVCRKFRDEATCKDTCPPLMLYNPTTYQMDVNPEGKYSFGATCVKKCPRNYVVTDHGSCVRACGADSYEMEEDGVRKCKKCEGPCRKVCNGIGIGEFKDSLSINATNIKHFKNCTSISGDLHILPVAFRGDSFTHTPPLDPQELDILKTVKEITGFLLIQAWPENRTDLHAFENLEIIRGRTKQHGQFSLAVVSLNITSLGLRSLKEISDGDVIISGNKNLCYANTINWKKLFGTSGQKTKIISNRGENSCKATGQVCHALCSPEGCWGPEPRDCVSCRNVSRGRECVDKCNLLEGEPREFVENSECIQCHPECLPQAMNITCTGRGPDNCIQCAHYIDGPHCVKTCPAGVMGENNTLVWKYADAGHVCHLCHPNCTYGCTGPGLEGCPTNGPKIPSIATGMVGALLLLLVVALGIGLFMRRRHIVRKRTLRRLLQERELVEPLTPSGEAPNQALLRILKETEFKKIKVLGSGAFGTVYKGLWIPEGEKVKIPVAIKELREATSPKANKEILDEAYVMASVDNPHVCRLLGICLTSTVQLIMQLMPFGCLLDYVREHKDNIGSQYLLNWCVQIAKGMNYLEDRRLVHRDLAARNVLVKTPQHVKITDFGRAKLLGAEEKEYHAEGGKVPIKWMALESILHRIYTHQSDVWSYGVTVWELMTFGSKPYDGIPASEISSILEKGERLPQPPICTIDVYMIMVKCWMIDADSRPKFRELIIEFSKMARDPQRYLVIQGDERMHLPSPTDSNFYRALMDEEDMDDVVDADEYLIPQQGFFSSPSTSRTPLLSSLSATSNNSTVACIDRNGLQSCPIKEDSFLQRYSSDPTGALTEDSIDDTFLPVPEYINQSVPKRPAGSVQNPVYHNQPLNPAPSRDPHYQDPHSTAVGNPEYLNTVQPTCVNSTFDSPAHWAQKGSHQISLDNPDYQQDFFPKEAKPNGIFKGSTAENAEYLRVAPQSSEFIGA
Method: The exemplified compounds described herein were tested according to the assay below. The enzyme data reported in Tables 4-5 is generally a representative of multiple experiments.
Reactions proceed for 30 minutes at room temperature (22° C.) and are terminated with 80 mM 2,2′,2″,2′″-(ethane-1,2-diyldinitrilo)tetraacetic acid (EDTA). Product is detected using the Caliper mobility shift detection method where product and substrate are electrophoretically separated and measured.

[2] = tested on: H1975 (EGFR T790M/L858R) cell proliferation; assay: H1975 proliferation assay (Cell Titer-Glo); format: cell-based; conditions: NCI-H1975 cells, 72 hour incubation
Method: H1975 Proliferation Assays
All cell culture reagents were purchased from Invitrogen/Gibco. Cells are cultured at 37° C. at 5% CO2 and split as recommended by ATCC.

[3] = target: T2, phosphor-EGFR in H1975(L585R/T790M) mutant EGFR expressing cells (Homo sapiens, UniProt P00533, L858R/T790M); assay: H1975 pEGFR MSD cellular assay; format: cell-based; conditions: NCI-H1975 cells, serum starved, 1 hour compound incubation, pEGFR Tyr1068 MSD; read-out: HI975 pEGFR EC50
T2 construct: host or cells: NCI-H1975
T2 sequence (P00533 25-1210 T790M/L858R): as above
Method: H1975 pEGFR MSD Cellular Assays
These assays are intended for determining cellular. […] (Meso Scale Discovery Catalog# N31CB-1).
NCI-H1975 (ATCC Catalog# CRL-5908) cells are maintained in medium containing RPMI 1640, 10% FBS, 4 mM L-Glutamine, 1% Penicillin-Streptomycin, and 4.5 g/L Glucose. All cell culture reagents were purchased from Invitrogen/Gibco. Cells are cultured at 37° C. at 5% CO2 and split as recommended by ATCC.
Cell Plating and Serum Starvation:
H1975 cells are harvested and plated into sterile cell culture treated 384 well plates (Greiner catalog #781091) at a density of 30,000 cells/well in 50 ul culture medium and placed in a 37° C. at 5% CO2 incubator for six hours. After six hours, culture medium is aspirated and replaced with serum-free culture medium. Cells are then incubated with the serum-free medium overnight at 37° C. and 5% CO2.
The following day, test compounds are serially diluted in dimethyl sulfoxide (DMSO) and added to cells in serum free medium (final DMSO concentration 0.5%). Assay plates are then incubated for 1 hour at 37° C. and 5% CO2. Following 1 hour of compound incubation cells are then lysed and processed as per the MSD pEGFR assay kit protocol. Cell lysates are added to assay plates pre-coated with antibodies against phosphorylated EGFR. Phosphorylated EGFR in samples are allowed to bind to the capture antibodies overnight at 4° C. The detection antibody (anti-total EGFR, labeled with an electrochemiluminescent SULFO-TAG) is added to the bound lysate and incubated for 1 hour at room temperature. The MSD Read Buffer is added such that when a voltage is applied to the plate electrodes, the labels bound to the electrode surface emit light. The MSD Sector Instrument measures the intensity of the light, and quantitatively measures the amount of phosphorylated-EGFR in the sample. Percent inhibition of EGFR phosphorylation by varying concentrations of test compounds is calculated relative to untreated controls. EC50 values are calculated using the 4 parameter logistic nonlinear regression dose-response model.

[4] = Homo sapiens, NCI-H1975, 72 h, read-out: H1975 antiproliferative EC50

| SMILES | Ki [1] [nM] | EC50 [2, 4] [nM] | EC50 [3] [nM] | EC50 ([2]; listed as 13, enantiomer 2, read-out: H1975 antiproliferative EC50) [nM] | EC50 ([2]; listed as 27, enantiomer 2, read-out: H1975 antiproliferative EC50) [nM] |
| --- | --- | --- | --- | --- | --- |
| CCC(C)n1nc(N2CC(C(C)(C)O)C2)c2cnc(Nc3ccnc(N4CCC(O)C(C)(C)C4)n3)cc21 (mixture of isomers) [Example 12, 1-(4-((1-(sec-Butyl)-3-(3-(2-hydroxypropan-2-yl)azetidin-1-yl)-1H-pyrazolo[4,3-c]pyridin-6-yl)amino)pyrimidin-2-yl)-3,3-dimethylpiperidin-4-ol] | 2.2 | 288 | 30.2 | – | – |
| CC(C)n1nc(N2CCOCC2)c2cnc(Nc3ccnc(N4CCC(O)C(F)C4)n3)cc21 (racemic) [Example 20, (±)-cis-3-Fluoro-1-[4-(1-isopropyl-3-morpholin-4-yl-1H-pyrazolo[4,3-c]pyridin-6-ylamino)pyrimidin-2-yl]piperidin-4-ol] | 2.5 | 1080 | 135 | – | – |
| CCC(C)n1nc(N2CC(C(C)(C)O)C2)c2cnc(Nc3ccnc(-c4cnn(S(=O)(=O)C5CC5)c4)n3)cc21 (single isomer, unassigned) [Example 13, enantiomer 1, 2-(1-(1-(sec-Butyl)-6-((2-(1-(cyclopropylsulfonyl)-1H-pyrazol-4-yl)pyrimidin-4-yl)amino)-1H-pyrazolo[4,3-c]pyridin-3-yl)azetidin-3-yl)propan-2-ol] | – | 361 | – | – | – |
| CCC(C)n1nc(N2CC(C(C)(C)O)C2)c2cnc(Nc3ccnc(-c4cnn(S(=O)(=O)C5CC5)c4)n3)cc21 (single isomer, unassigned) [Example 13, enantiomer 2, 2-(1-(1-(sec-Butyl)-6-((2-(1-(cyclopropylsulfonyl)-1H-pyrazol-4-yl)pyrimidin-4-yl)amino)-1H-pyrazolo[4,3-c]pyridin-3-yl)azetidin-3-yl)propan-2-ol] | – | – | – | 633 | – |
| CC(C)n1nc(F)c2cnc(Nc3ccnc(-c4cnn(S(=O)(=O)C5CC5)c4)n3)cc21 [Example 7, N-(2-(1-(Cyclopropylsulfonyl)-1H-pyrazol-4-yl)pyrimidin-4-yl)-3-fluoro-1-isopropyl-1H-pyrazolo[4,3-c]pyridin-6-amine] | 298 | > 10000 | – | – | – |
| COC1CCN(c2nccc(Nc3cc4c(cn3)c(C(N)=O)nn4C(C)C)n2)CC1 [Example 11, 1-Isopropyl-6-((2-(4-methoxypiperidin-1-yl)pyrimidin-4-yl)amino)-1H-pyrazolo[4,3-c]pyridine-3-carboxamide] | 29.1 | – | – | – | – |
| CCC(C)n1nc(N2CC(N)C(F)(F)C2)c2cnc(Nc3ccnc(N4CCC(C)(O)CC4)n3)cc21 (stereo not drawn) [Example 184, 1-(4-(3-(4-Amino-3,3-difluoropyrrolidin-1-yl)-1-sec-butyl-1H-pyrazolo[4,3-c]pyridin-6-ylamino)pyrimidin-2-yl)-4-methylpiperidin-4-ol] | – | 761 | 94.9 | – | – |
| CCC(C)n1nc(N2CCN(C(=O)[C@H](C)O)CC2)c2cnc(Nc3ccnc(-c4cnn(S(=O)(=O)C5CC5)c4)n3)cc21 (stereo partly drawn) [Example 187, (2S)-1-(4-(1-sec-Butyl-6-(2-(1-(cyclopropylsulfonyl)-1H-pyrazol-4-yl)pyrimidin-4-ylamino)-1H-pyrazolo[4,3-c]pyridin-3-yl)piperazin-1-yl)-2-hydroxypropan-1-one] | – | 813 | 75.5 | – | – |
| CCC(C)n1nc(N2CCN(C(=O)[C@@H](C)O)CC2)c2cnc(Nc3ccnc(-c4cnn(S(=O)(=O)C5CC5)c4)n3)cc21 (stereo partly drawn) [Example 188, (2R)-1-(4-(1-sec-Butyl-6-(2-(1-(cyclopropylsulfonyl)-1H-pyrazol-4-yl)pyrimidin-4-ylamino)-1H-pyrazolo[4,3-c]pyridin-3-yl)piperazin-1-yl)-2-hydroxypropan-1-one] | – | 1090 | 64.3 | – | – |
| CCC(C)n1nc(N2C[C@@H](CO)NC2=O)c2cnc(Nc3ccnc(-c4cnn(S(=O)(=O)C5CC5)c4)n3)cc21 (stereo partly drawn) [Example 189, (4S)-1-(1-sec-Butyl-6-(2-(1-(cyclopropylsulfonyl)-1H-pyrazol-4-yl)pyrimidin-4-ylamino)-1H-pyrazolo[4,3-c]pyridin-3-yl)-4-(hydroxymethyl)imidazolidin-2-one] | – | 5590 | 474 | – | – |

Continued, values first:

| Ki [1] [nM] | EC50 [2, 4] [nM] | EC50 [3] [nM] | EC50 ([2]; listed as 13, enantiomer 2, read-out: H1975 antiproliferative EC50) [nM] | EC50 ([2]; listed as 27, enantiomer 2, read-out: H1975 antiproliferative EC50) [nM] | SMILES |
| --- | --- | --- | --- | --- | --- |
| 1 | 216 | 19.3 | – | – | CCC(C)n1nc(N2CC3(COC3)C2)c2cnc(Nc3ccnc(-c4cnn(S(=O)(=O)C5CC5)c4)n3)cc21 (racemic) [Example 14, 1-(sec-Butyl)-N-(2-(1-(cyclopropylsulfonyl)-1H-pyrazol-4-yl)pyrimidin-4-yl)-3-(2-oxa-6-azaspiro[3.3]heptan-6-yl)-1H-pyrazolo[4,3-c]pyridin-6-amine] |
| – | 610 | – | – | – | CCC(C)n1nc(N2CCOCC2)c2cnc(Nc3ccnc(-c4cnn(S(=O)(=O)C5CC5)c4)n3)cc21 (single isomer, unassigned) [Example 27, enantiomer 1, 1-(sec-Butyl)-N-(2-(1-(cyclopropylsulfonyl)-1H-pyrazol-4-yl)pyrimidin-4-yl)-3-morpholino-1H-pyrazolo[4,3-c]pyridin-6-amine] |
| – | – | – | – | 1140 | CCC(C)n1nc(N2CCOCC2)c2cnc(Nc3ccnc(-c4cnn(S(=O)(=O)C5CC5)c4)n3)cc21 (single isomer, unassigned) [Example 27, enantiomer 2, 1-(sec-Butyl)-N-(2-(1-(cyclopropylsulfonyl)-1H-pyrazol-4-yl)pyrimidin-4-yl)-3-morpholino-1H-pyrazolo[4,3-c]pyridin-6-amine] |
| – | 696 | 85.6 | – | – | CCC(C)n1nc(N2CC[C@H](O)C2=O)c2cnc(Nc3ccnc(-c4cnn(S(=O)(=O)C5CC5)c4)n3)cc21 (stereo partly drawn) [Example 185, (3S)-(1-sec-Butyl-6-(2-(1-(cyclopropylsulfonyl)-1H-pyrazol-4-yl)pyrimidin-4-ylamino)-1H-pyrazolo[4,3-c]pyridin-3-yl)-3-hydroxypyrrolidin-2-one] |
| – | 586 | 74.9 | – | – | CCC(C)n1nc(N2CC[C@@H](O)C2=O)c2cnc(Nc3ccnc(-c4cnn(S(=O)(=O)C5CC5)c4)n3)cc21 (stereo partly drawn) [Example 186, (3R)-1-(1-sec-Butyl-6-(2-(1-(cyclopropylsulfonyl)-1H-pyrazol-4-yl)pyrimidin-4-ylamino)-1H-pyrazolo[4,3-c]pyridin-3-yl)-3-hydroxypyrrolidin-2-one] |
| – | 537 | 44.6 | – | – | CCC(C)n1nc(N2CC(C(C)O)C2)c2cnc(Nc3ccnc(-c4cnn(S(=O)(=O)C5CC5)c4)n3)cc21 (stereo not drawn) [Example 190, 1-(1-(1-sec-Butyl-6-(2-(1-(cyclopropylsulfonyl)-1H-pyrazol-4-yl)pyrimidin-4-ylamino)-1H-pyrazolo[4,3-c]pyridin-3-yl)azetidin-3-yl)ethanol] |
| – | > 10000 | 532 | – | – | CC(C)n1nc(N2C[C@@H](O)[C@@H](O)C2)c2cnc(Nc3ccnc(N4CCC(C)(O)CC4)n3)cc21 [Example 191, (±)-1-(6-(2-(4-Hydroxy-4-methylpiperidin-1-yl)pyrimidin-4-ylamino)-1-isopropyl-1H-pyrazolo[4,3-c]pyridin-3-yl)pyrrolidine-cis-3,4-diol] |
| – | > 10000 | – | – | – | CC(C)n1nc(N2C[C@H](O)[C@@H](O)C2)c2cnc(Nc3ccnc(N4CCC(C)(O)CC4)n3)cc21 [Example 192, (3S,4S)-1-(6-(2-(4-Hydroxy-4-methylpiperidin-1-yl)pyrimidin-4-ylamino)-1-isopropyl-1H-pyrazolo[4,3-c]pyridin-3-yl)pyrrolidine-3,4-diol] |
